Species on record: Rattus norvegicus
Test: DrugMatrix - Regimen: Daily Repeat
Type: toxicity, organism-based, Sprague-Dawley
Parameters: regimen Daily Repeat, gender Male, age 6-8 weeks
Conditions: in vivo, po, route oral GAVAGE, vehicle 100 % WATER; for ABSOLUTE BASOPHIL / ABSOLUTE EOSINOPHIL / ABSOLUTE LYMPHOCYTE / ABSOLUTE MONOCYTE / ABSOLUTE SEGMENTED NEUTROPHIL / BASOPHIL / EOSINOPHIL / ERYTHROCYTE COUNT / HEMATOCRIT / HEMOGLOBIN / LEUKOCYTE COUNT / LYMPHOCYTE / MEAN CORPUSCULAR HEMOGLOBIN / MEAN CORPUSCULAR HEMOGLOBIN CONCENTRATION / MEAN CORPUSCULAR VOLUME / MONOCYTE / NEUTROPHIL / NUCLEATED RED BLOOD CELLS / PLATELET COUNT: tissue Blood; for ALANINE AMINOTRANSFERASE / ALBUMIN / ALKALINE PHOSPHATASE / ASPARTATE AMINOTRANSFERASE / BLOOD UREA NITROGEN / CARBON DIOXIDE / CHOLESTEROL / CREATINE PHOSPHOKINASE / CREATININE / GLUCOSE / LACTATE DEHYDROGENASE / LIPASE / PHOSPHORUS / POTASSIUM / TOTAL BILIRUBIN / TOTAL PROTEIN / URIC ACID / CHLORIDE / SODIUM: tissue Plasma
[1] = 0 mg/kg, 72 h, dose level Control, time 3 day
[2] = 0 mg/kg, 120 h, dose level Control, time 5 day
[3] = 1500 mg/kg, 72 h, dose level High, time 3 day
[4] = 1500 mg/kg, 120 h, dose level High, time 5 day

CADMIUM ACETATE was tested, and the “ABSOLUTE BASOPHIL” value [1] was 0 CELLS/uL, the “ABSOLUTE EOSINOPHIL” value [1] was 0 CELLS/uL and the “ABSOLUTE LYMPHOCYTE” value [1] was 10386.33 CELLS/uL. The “ABSOLUTE MONOCYTE” value [1] was 88.5 CELLS/uL, the “ABSOLUTE SEGMENTED NEUTROPHIL” value [1] was 1008.5 CELLS/uL and the BASOPHIL [1] was 0%. The EOSINOPHIL [1] was 0%, the “ERYTHROCYTE COUNT” value [1] was 5.16 x10E6/uL and the HEMATOCRIT [1] was 32.43%. The HEMOGLOBIN [1] was 12.98 G/DL, the “LEUKOCYTE COUNT” value [1] was 11.48 x10E3/uL and the LYMPHOCYTE [1] was 92.33%. For the same compound, the “MEAN CORPUSCULAR HEMOGLOBIN” value [1] was 25.23 pg, the “MEAN CORPUSCULAR HEMOGLOBIN CONCENTRATION” value [1] was 40.08 G/DL and the “MEAN CORPUSCULAR VOLUME” value [1] was 62.95 fL. For the same compound, the MONOCYTE [1] was 0.67%, the NEUTROPHIL [1] was 7% and the “NUCLEATED RED BLOOD CELLS” value [1] was 0 /100WBC. The “PLATELET COUNT” value [1] was 1016.67 x10E3/uL, the “ALANINE AMINOTRANSFERASE” value [1] was 62.17 u/L and the ALBUMIN [1] was 3.95 G/DL. The “ALKALINE PHOSPHATASE” value [1] was 363.5 u/L, the “ASPARTATE AMINOTRANSFERASE” value [1] was 118 u/L and the “BLOOD UREA NITROGEN” value [1] was 14.5 mg/dL. For the same compound, the “CARBON DIOXIDE” value [1] was 22.83 mmol/L, the CHOLESTEROL [1] was 66 mg/dL and the “CREATINE PHOSPHOKINASE” value [1] was 1308.83 u/L. For the same compound, the CREATININE [1] was 0.22 mg/dL, the GLUCOSE [1] was 187.5 mg/dL and the “LACTATE DEHYDROGENASE” value [1] was 380.17 u/L. The LIPASE [1] was 16.17 u/L, the PHOSPHORUS [1] was 14.27 mg/dL and the POTASSIUM [1] was 6.8 MEQ/L. For the same compound, the “TOTAL BILIRUBIN” value [1] was 0.2 mg/dL, the “TOTAL PROTEIN” value [1] was 5.68 G/DL and the “URIC ACID” value [1] was 2.87 mg/dL. The “ABSOLUTE BASOPHIL” value [2] was 0 CELLS/uL, the “ABSOLUTE EOSINOPHIL” value [2] was 80 CELLS/uL and the “ABSOLUTE LYMPHOCYTE” value [2] was 13301.33 CELLS/uL. The “ABSOLUTE MONOCYTE” value [2] was 180.83 CELLS/uL, the “ABSOLUTE SEGMENTED NEUTROPHIL” value [2] was 1187.83 CELLS/uL and the BASOPHIL [2] was 0%. For the same compound, the EOSINOPHIL [2] was 0.5%, the “ERYTHROCYTE COUNT” value [2] was 5.54 x10E6/uL and the HEMATOCRIT [2] was 35.65%. For the same compound, the HEMOGLOBIN [2] was 14.22 G/DL, the “LEUKOCYTE COUNT” value [2] was 14.75 x10E3/uL and the LYMPHOCYTE [2] was 90.67%. For the same compound, the “MEAN CORPUSCULAR HEMOGLOBIN” value [2] was 25.65 pg, the “MEAN CORPUSCULAR HEMOGLOBIN CONCENTRATION” value [2] was 39.88 G/DL and the MONOCYTE [2] was 1%. For the same compound, the NEUTROPHIL [2] was 7.83%, the “NUCLEATED RED BLOOD CELLS” value [2] was 0.17 /100WBC and the “PLATELET COUNT” value [2] was 1285.33 x10E3/uL. The “ALANINE AMINOTRANSFERASE” value [2] was 51.67 u/L, the “ALKALINE PHOSPHATASE” value [2] was 391.5 u/L and the “ASPARTATE AMINOTRANSFERASE” value [2] was 99.5 u/L. The “BLOOD UREA NITROGEN” value [2] was 15.5 mg/dL, the “CARBON DIOXIDE” value [2] was 28.33 mmol/L and the CHOLESTEROL [2] was 67.83 mg/dL. The “CREATINE PHOSPHOKINASE” value [2] was 771.33 u/L, the CREATININE [2] was 0.23 mg/dL and the GLUCOSE [2] was 156.5 mg/dL. The “LACTATE DEHYDROGENASE” value [2] was 544.33 u/L, the LIPASE [2] was 10.17 u/L and the PHOSPHORUS [2] was 12.03 mg/dL. The POTASSIUM [2] was 6.81 MEQ/L, the “TOTAL BILIRUBIN” value [2] was 0.22 mg/dL and the “TOTAL PROTEIN” value [2] was 6 G/DL. The “URIC ACID” value [2] was 2.18 mg/dL.

In the case of `CNCCc1ccccn1` [BETAHISTINE], the “ABSOLUTE BASOPHIL” value [3] was 0 CELLS/uL, the “ABSOLUTE EOSINOPHIL” value [3] was 56.67 CELLS/uL and the “ABSOLUTE LYMPHOCYTE” value [3] was 8977.33 CELLS/uL. The “ABSOLUTE MONOCYTE” value [3] was 168 CELLS/uL, the “ABSOLUTE SEGMENTED NEUTROPHIL” value [3] was 798 CELLS/uL and the BASOPHIL [3] was 0%. For the same compound, the EOSINOPHIL [3] was 0.67%, the “ERYTHROCYTE COUNT” value [3] was 5.37 x10E6/uL and the HEMATOCRIT [3] was 33.67%. The HEMOGLOBIN [3] was 12.53 G/DL, the “LEUKOCYTE COUNT” value [3] was 10 x10E3/uL and the LYMPHOCYTE [3] was 89.67%. For the same compound, the “MEAN CORPUSCULAR HEMOGLOBIN” value [3] was 23.37 pg, the “MEAN CORPUSCULAR HEMOGLOBIN CONCENTRATION” value [3] was 37.27 G/DL and the “MEAN CORPUSCULAR VOLUME” value [3] was 62.73 fL. The MONOCYTE [3] was 1.67%, the NEUTROPHIL [3] was 8% and the “NUCLEATED RED BLOOD CELLS” value [3] was 0 /100WBC. For the same compound, the “PLATELET COUNT” value [3] was 1427.33 x10E3/uL, the “ALANINE AMINOTRANSFERASE” value [3] was 50 u/L and the ALBUMIN [3] was 4.53 G/DL. For the same compound, the “ALKALINE PHOSPHATASE” value [3] was 288.67 u/L, the “ASPARTATE AMINOTRANSFERASE” value [3] was 71.67 u/L and the “BLOOD UREA NITROGEN” value [3] was 14.33 mg/dL. For the same compound, the “CARBON DIOXIDE” value [3] was 28.33 mmol/L, the CHLORIDE [3] was 105.67 MEQ/L and the CHOLESTEROL [3] was 76.33 mg/dL. The “CREATINE PHOSPHOKINASE” value [3] was 148.67 u/L, the CREATININE [3] was 0.19 mg/dL and the GLUCOSE [3] was 141 mg/dL. The “LACTATE DEHYDROGENASE” value [3] was 118 u/L, the LIPASE [3] was 15.67 u/L and the PHOSPHORUS [3] was 12.33 mg/dL. The POTASSIUM [3] was 6.21 MEQ/L, the SODIUM [3] was 150.8 MEQ/L and the “TOTAL BILIRUBIN” value [3] was 0.2 mg/dL. For the same compound, the “TOTAL PROTEIN” value [3] was 6.07 G/DL, the “URIC ACID” value [3] was 0.87 mg/dL and the “ABSOLUTE BASOPHIL” value [4] was 0 CELLS/uL. The “ABSOLUTE EOSINOPHIL” value [4] was 0 CELLS/uL, the “ABSOLUTE LYMPHOCYTE” value [4] was 10659 CELLS/uL and the “ABSOLUTE MONOCYTE” value [4] was 37.33 CELLS/uL. The “ABSOLUTE SEGMENTED NEUTROPHIL” value [4] was 870.33 CELLS/uL, the BASOPHIL [4] was 0% and the EOSINOPHIL [4] was 0%. The “ERYTHROCYTE COUNT” value [4] was 5.91 x10E6/uL, the HEMATOCRIT [4] was 36.13% and the HEMOGLOBIN [4] was 13.33 G/DL. For the same compound, the “LEUKOCYTE COUNT” value [4] was 11.57 x10E3/uL, the LYMPHOCYTE [4] was 92% and the “MEAN CORPUSCULAR HEMOGLOBIN” value [4] was 22.63 pg. For the same compound, the “MEAN CORPUSCULAR HEMOGLOBIN CONCENTRATION” value [4] was 36.93 G/DL, the “MEAN CORPUSCULAR VOLUME” value [4] was 61.27 fL and the MONOCYTE [4] was 0.33%. For the same compound, the NEUTROPHIL [4] was 7.67%, the “NUCLEATED RED BLOOD CELLS” value [4] was 0 /100WBC and the “PLATELET COUNT” value [4] was 1404.67 x10E3/uL. For the same compound, the “ALANINE AMINOTRANSFERASE” value [4] was 60.67 u/L, the ALBUMIN [4] was 4.2 G/DL and the “ALKALINE PHOSPHATASE” value [4] was 406.33 u/L. The “ASPARTATE AMINOTRANSFERASE” value [4] was 75.67 u/L, the “BLOOD UREA NITROGEN” value [4] was 14 mg/dL and the “CARBON DIOXIDE” value [4] was 25.33 mmol/L. For the same compound, the CHLORIDE [4] was 105.33 MEQ/L, the CHOLESTEROL [4] was 59 mg/dL and the “CREATINE PHOSPHOKINASE” value [4] was 153 u/L. The CREATININE [4] was 0.19 mg/dL, the GLUCOSE [4] was 171 mg/dL and the “LACTATE DEHYDROGENASE” value [4] was 64 u/L. The LIPASE [4] was 8 u/L, the PHOSPHORUS [4] was 13.97 mg/dL and the POTASSIUM [4] was 5.7 MEQ/L. The SODIUM [4] was 146.6 MEQ/L, the “TOTAL BILIRUBIN” value [4] was 0.27 mg/dL and the “TOTAL PROTEIN” value [4] was 5.9 G/DL. For the same compound, the “URIC ACID” value [4] was 2.07 mg/dL.

— ChEMBL document CHEMBL3885881, “DrugMatrix”
